Test results: US20260092043A1, “NOVEL BENZOXAZOLE DERIVATIVE COMPRISING 4-AMINO-BUTANAMIDE AND USE THEREOF” (EWHA UNIVERSITY - INDUSTRY COLLABORATION FOUNDATION, priority 2022, published 2026)
Where two headings read alike, the source gives them in different places.

Tests used:
IL-6 mRNA expression = assay: Inhibition of IL-6 mRNA expression in LPS-treated HaCaT cells (real-time PCR); assay type: cell-based, Human; conditions: for mRNA Expression (%) (10 μM) IL-6: HaCaT cells, 10 μM compound pretreatment then LPS, LPS alone set to 100%; for IC50: Homo sapiens, HaCaT
Experimental: (§1) Human keratinocytes HaCaT or alpha mouse liver 12 (AML-12) cells were obtained from Cell Lines Service GmbH (Eppelheim, Germany). The cells were cultured in Dulbecco's modified Eagle's medium (DMEM, HyClone) supplemented with 10% fetal bovine serum (HyClone) (HaCaT cells) and 1% penicillin/streptomycin (HyClone) and maintained at 37° C. in a humidified atmosphere containing 5% CO2. AML-12 cells were pretreated with compounds at a concentration of 10 μM 1 hour before LPS treatment and then treated with LPS (100 ng/mL) for 24 hours.
(§2) Total RNA was isolated from tissues using TRIzol reagent (Invitrogen), and reverse transcription (RT) and real-time PCR analysis were performed using the ABI PRISM 7700 system (PE Biosystems). Data were normalized to the amount of GAPDH mRNA.
(§3) 13 novel synthetic compounds (Compounds 5a to 5m) and 3 synthetic intermediates (Compounds 4d, 4e, and 41) were screened by measuring the mRNA expression levels of IL-6 and IL-1β. Human keratinocyte HaCaT cell lines were used to evaluate the mRNA expression inhibition effect. […] Each compound was administered at a concentration of 10 μM.
Dose-response studies were performed for the above five compounds at different concentrations to obtain IC50 values (μM) (FIG. 1 and Table 3).

IL-1β mRNA expression = assay: Inhibition of IL-1β mRNA expression in LPS-treated HaCaT cells (real-time PCR); assay type: cell-based, Human; conditions: 10 μM compound pretreatment then LPS, LPS alone set to 100%
Experimental: as §1, §2, §3

pY-STAT3 = assay: Western blotting of pY-STAT3 in LPS-treated AML-12 cells; assay type: cell-based, mouse; conditions: 10 μM compound, FIG. 2
Experimental: as §1
(§4) Protein levels in cells and mouse tissues were determined by immunoblot analysis. […] After quantifying the protein concentrations in the lysates (supernatant) using the Bradford assay (Bio-Rad, CA, USA), the lysates were mixed with a sample buffer (62.5 mM Tris-HCl pH 6.8, 10% glycerol, 2% sodium dodecyl sulfate, 0.0125% bromophenol blue, 2.5% β-mercaptoethanol) and heated at 95° C. for 5 minutes. […] Immune complexes were detected with horseradish peroxidase (HRP)-conjugated secondary antibodies (Bio-Rad, Hercules, CA, USA) and enhanced with chemiluminescence reagents (Ab Frontier, Daejeon, Korea) using IQ800 (GE Healthcare, Sweden). The abundance of the target protein was quantified by densitometric analysis of the immunoblot. […]

p-IκBα = assay: Western blotting of p-IκBα in LPS-treated AML-12 cells; assay type: cell-based, mouse; conditions: 10 μM compound, FIG. 2
Experimental: as §1, §4

p-NF-κB p65 = assay: Western blotting of p-NF-κB p65 in LPS-treated AML-12 cells; assay type: cell-based, mouse; conditions: 10 μM compound, FIG. 2
Experimental: as §1, §4

IL-1β mRNA = IL-1β mRNA level in liver tissue of LPS-injected mice; assay type: in vivo, mice (C57BL/6J); conditions: 10 mg/kg in olive oil 1 hour before LPS (1 mg/kg i.p., 6 h)
Experimental: (§5) 10-week-old male C57BL/6J mice (Jackson Laboratory, Bar Harbor, ME, USA) were used in the experiment. All animal experiments were performed in accordance with the protocol approved by the Institutional Animal Care and Use Committee of Ewha Womans University (EWHA IACUC 19-001). The mice were housed in a temperature-controlled room (20 to 22° C. with a 12 h light:12 h dark cycle). The compounds prepared according to Examples 1 to 10 were diluted with olive oil (vehicle, Sigma) to a volume of 200 μL (10 mg/kg) and administered to mice (male C57BL/6J, […]) 1 hour before LPS administration. LPS (1 mg/kg, 6 h) was resuspended in saline and injected intraperitoneally at a dose of 1 mg/kg of body weight. At the end of the experiment, the mice were sacrificed (tribromoethanol, 250 mg/kg, i.p.) and the liver and blood were collected for further analysis.
as §2
(§6) 2 compounds (Compounds 4d and 5f) were selected for in vivo assay. […] In order to evaluate the anti-inflammatory activity in mice, the mRNA expressions of IL-1β, IL-6, and TNF-α were measured, and the results are shown in FIG. 3.

IL-6 mRNA = IL-6 mRNA level in liver tissue of LPS-injected mice; assay type: in vivo, mice (C57BL/6J); conditions: 10 mg/kg in olive oil 1 hour before LPS (1 mg/kg i.p., 6 h)
Experimental: as §5, §2, §6

TNF-α mRNA = TNF-α mRNA level in liver tissue of LPS-injected mice; assay type: in vivo, mice (C57BL/6J); conditions: 10 mg/kg in olive oil 1 hour before LPS (1 mg/kg i.p., 6 h)
Experimental: as §5, §2, §6

[1] = test system: LPS-induced liver inflammatory disease model; assay: Liver histology (H&E) and F4/80 immunohistochemistry in LPS-induced liver inflammatory disease model; assay type: in vivo, mice (C57BL/6J); conditions: mice, compared to LPS alone; for F4/80-positive cells in liver: immunohistochemistry
Experimental: as §5
First, 4% paraformaldehyde-fixed liver tissues were embedded in paraffin according to standard procedures. 4-micron-thick liver tissue sections were prepared, and immunohistochemical staining was performed according to the manufacturer's instructions. 4-micron-thick liver tissue sections were stained with hematoxylin and eosin (H&E) or subjected to immunohistochemical characterization using an antibody specific for F4/80 (Abcam, Cambridge, MA, UK). All steps were performed at room temperature, and the tissues were washed with tap water after each step. The sections were photographed using a Zeiss microscope (Carl Ziess, Thronwood, NY, USA) equipped with AxioCam software.
As a result of LPS administration, macrophage infiltration into the liver tissue was observed. When Compounds 5f and 4d were administered, the inflammatory response was improved compared to when LPS was administered alone.
In order to characterize the phenotype of macrophages accumulated in LPS-induced inflammation, immunohistochemical studies were performed using antibodies against F4/80 as a marker of mature macrophages (FIG. 4b). When LPS was administered alone to induce an inflammatory response, hepatic macrophage accumulation increased. As a result, there was a marked elevation of the number of F4/80-positive cells.

[2] = Plasma ALT and AST levels in LPS-injected mice; assay type: in vivo, mice (C57BL/6J); conditions: for plasma alanine aminotransferase (ALT) level / plasma aspartate transaminase (AST) level: compared to LPS alone; for hepatotoxicity in vivo: judged by ALT and AST levels
Experimental: as §5
The concentrations of plasma alanine aminotransferase (ALT) and aspartate transaminase (AST) were determined using an EnzyChrom™ assay kit (BioAssay Systems, Hayward, CA, USA) according to the manufacturer's recommendations.
Consistent with the altered histological characteristics, plasma alanine aminotransferase (ALT) and aspartate transaminase (AST) levels increased after LPS administration (FIGS. 4c and 4d), and when Compounds 5f and 4d were administered, ALT and AST levels decreased.

[3] = dose-response of normalized IL-6 mRNA expression (FIG. 1), read-out: IC50
[4] = log of IC50, dose-response of normalized IL-6 mRNA expression (FIG. 1), read-out: Log (converted)

## COc1cc(NC(=O)CCCN)ccc1Nc1nc2cc(C(C)(C)C)ccc2o1 [Compound 5m, 4-amino-N-(4-(5-tert-butylbenzo[d]oxazol-2-ylamino)-3-methoxyphenyl)butanamide]
IL-6 mRNA expression
  mRNA Expression (%) (10 μM) IL-6: 4.07%
IL-6 mRNA expression; [3]
  IC50: 0.199 nM
IL-6 mRNA expression; [4]
  IC50: 0.2 nM
IL-1β mRNA expression
  mRNA Expression (%) (10 μM) IL-1β: 0.49%

## Cc1ccc2oc(Nc3ccc(NC(=O)CCCN)cc3)nc2c1 [Compound 5d, 4-amino-N-(4-(5-methylbenzo[d]oxazol-2-ylamino)phenyl)butanamide]
IL-6 mRNA expression
  mRNA Expression (%) (10 μM) IL-6: 3.39%
IL-6 mRNA expression; [3]
  IC50: 32.7 nM
IL-6 mRNA expression; [4]
  IC50: 33.1 nM
IL-1β mRNA expression
  mRNA Expression (%) (10 μM) IL-1β: 0.03%

## CC(C)(C)c1ccc2oc(Nc3ccc(NC(=O)CCCN)cc3)nc2c1 [Compound 5f, 4-amino-N-(4-(5-tert-butylbenzo[d]oxazol-2-ylamino)phenyl)butanamide]
IL-6 mRNA expression
  mRNA Expression (%) (10 μM) IL-6: 3.26%
IL-6 mRNA expression; [3]
  IC50: 0.444 nM
IL-6 mRNA expression; [4]
  IC50: 0.447 nM
IL-1β mRNA expression
  mRNA Expression (%) (10 μM) IL-1β: 2.83%
pY-STAT3
  expression level of pY-STAT3: significantly down-regulated
p-IκBα
  expression level of p-IκBα: significantly down-regulated
p-NF-κB p65
  expression level of p-NF-κB p65: significantly down-regulated
IL-1β mRNA
  mRNA level of IL-1β in vivo: significantly reduced
IL-6 mRNA
  mRNA level of IL-6 in vivo: significantly reduced
TNF-α mRNA
  mRNA level of TNF-α in vivo: significantly reduced
[1]
  inflammatory response in liver histology (H&E): improved
  F4/80-positive cells in liver: significant decrease
[2]
  plasma alanine aminotransferase (ALT) level: decreased
  plasma aspartate transaminase (AST) level: decreased
  hepatotoxicity in vivo: without hepatotoxicity

## Cc1ccc2oc(Nc3ccc(NC(=O)CCCNC(=O)OC(C)(C)C)cc3)nc2c1 [Compound 4d, tert-butyl 4-(4-(5-methylbenzo[d]oxazol-2-ylamino)phenylamino)-4-oxobutylcarbamate]
IL-6 mRNA expression
  mRNA Expression (%) (10 μM) IL-6: 2.4%
IL-6 mRNA expression; [3]
  IC50: 0.0604 nM
IL-6 mRNA expression; [4]
  IC50: 0.0603 nM
IL-1β mRNA expression
  mRNA Expression (%) (10 μM) IL-1β: 0.03%
pY-STAT3
  expression level of pY-STAT3: significantly down-regulated
p-IκBα
  expression level of p-IκBα: significantly down-regulated
p-NF-κB p65
  expression level of p-NF-κB p65: significantly down-regulated
IL-1β mRNA
  mRNA level of IL-1β in vivo: significantly reduced
IL-6 mRNA
  mRNA level of IL-6 in vivo: significantly reduced
TNF-α mRNA
  mRNA level of TNF-α in vivo: significantly reduced
[1]
  inflammatory response in liver histology (H&E): improved
  F4/80-positive cells in liver: significant decrease
[2]
  plasma alanine aminotransferase (ALT) level: decreased
  plasma aspartate transaminase (AST) level: decreased
  hepatotoxicity in vivo: without hepatotoxicity

## Cc1cccc2oc(Nc3ccc(NC(=O)CCCN)cc3)nc12 [Compound 5c, 4-amino-N-(4-(4-methylbenzo[d]oxazol-2-ylamino)phenyl)butanamide]
IL-6 mRNA expression
  mRNA Expression (%) (10 μM) IL-6: 2.08%
IL-6 mRNA expression; [3]
  IC50: 1640 nM
IL-6 mRNA expression; [4]
  IC50: 1660 nM
IL-1β mRNA expression
  mRNA Expression (%) (10 μM) IL-1β: 0.79%
